Laboratory results published in PMC11062894, “Protein-based bandpass filters for controlling cellular signaling with chemical inputs” (Nature Chemical Biology, 2023).
Several values for one entry are separate records, joined by “and”; a condition that tells them apart may be missing. Equal entries are not always repeated.

Assays:
[1] = target: BclXL–LD3 interaction (Homo sapiens, UniProt Q07817); assay: SPR drug competition assay, BclXL–LD3; type: binding; settings: for Normalization of Response units / Response units: BclXL, Supp Fig 2d
Sequence of BclXL–LD3 interaction (Q07817 1-209 limits assumed): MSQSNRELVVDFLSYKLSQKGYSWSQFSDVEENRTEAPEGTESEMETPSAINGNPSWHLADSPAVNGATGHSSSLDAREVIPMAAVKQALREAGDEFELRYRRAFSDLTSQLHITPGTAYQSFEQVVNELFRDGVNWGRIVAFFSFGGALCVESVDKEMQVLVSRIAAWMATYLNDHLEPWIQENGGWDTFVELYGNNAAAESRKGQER

[2] = target: Bcl2–LD3 interaction (Homo sapiens, UniProt P10415); assay: SPR drug competition assay, Bcl2–LD3; type: binding; settings: Bcl2, Supp Fig 2d
Sequence of Bcl2–LD3 interaction (P10415 1-207 limits assumed): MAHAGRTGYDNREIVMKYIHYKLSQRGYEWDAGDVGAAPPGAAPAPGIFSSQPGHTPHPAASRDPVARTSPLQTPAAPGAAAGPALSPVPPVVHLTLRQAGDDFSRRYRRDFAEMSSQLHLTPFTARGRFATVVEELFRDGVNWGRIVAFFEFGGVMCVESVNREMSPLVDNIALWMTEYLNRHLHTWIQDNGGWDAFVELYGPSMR
Experimental: Drug IC50 values for disrupting heterodimers were measured on a Biacore 8K device. A 5 µM portion of analyte was mixed with 10 µM of BclXL or Bcl2 inhibitors according to the analyte. The mixtures of analyte and drug were injected onto the LD3 immobilized channel.
(§1) Binding affinities of SPR drug competition assays were calculated using three-parameter nonlinear regression in GraphPad Prism (v.8.3.0). Representative data of cell assays are presented as individual values and mean values (bars). n = 3 refers to biological replicates. All IC50 or EC50 values of cell assays reported were calculated using four-parameter nonlinear regression ± s.d. Bandpass features of cutoff concentrations and Bandwidth90% were estimated based on the curve fitted using bell-shaped curve nonlinear regression in GraphPad Prism (v.8.3.0). […]
This assay is designed to test if the drug of interest can specifically disrupt the
interaction between LD3 and BclXL/Bcl2. The drug-receptors (Bcl2, BclXL) are immobilized on the
different channels of the sensor chip, then the binding sites are saturated with LD3. […]

[3] = target: GEMS with the dual-drug-controlled (A-1155463, venetoclax) switch (Bcl2 and BclXL–LD3) in HEK293T cells (Homo sapiens, UniProt P10415); assay: GEMS SEAP reporter assay, dual-drug-controlled (A-1155463, venetoclax) switch; type: cell-based; settings: for SEAP (U/L): Figure 2c, OFF-phase
Sequence of GEMS with the dual-drug-controlled (A-1155463, venetoclax) switch (Bcl2 and BclXL–LD3) in HEK293T cells (Q07817 whole entry): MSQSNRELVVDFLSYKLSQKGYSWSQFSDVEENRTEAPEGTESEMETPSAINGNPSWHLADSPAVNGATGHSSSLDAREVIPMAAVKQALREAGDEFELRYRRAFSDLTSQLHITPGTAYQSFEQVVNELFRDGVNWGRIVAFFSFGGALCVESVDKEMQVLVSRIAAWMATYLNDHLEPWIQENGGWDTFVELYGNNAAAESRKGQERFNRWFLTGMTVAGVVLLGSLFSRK
Sequence of GEMS with the dual-drug-controlled (A-1155463, venetoclax) switch (Bcl2 and BclXL–LD3) in HEK293T cells (P10415 whole entry): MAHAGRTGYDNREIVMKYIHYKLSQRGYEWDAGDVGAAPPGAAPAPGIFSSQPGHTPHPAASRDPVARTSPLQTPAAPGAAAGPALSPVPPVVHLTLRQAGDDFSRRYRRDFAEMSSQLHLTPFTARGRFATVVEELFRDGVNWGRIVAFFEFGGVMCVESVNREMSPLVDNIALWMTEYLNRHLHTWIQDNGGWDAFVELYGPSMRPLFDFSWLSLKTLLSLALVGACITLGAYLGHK
Text: In the first step, we sought to construct a dual-drug-controlled switch to test whether the ON and OFF switching processes can be combined in our receptor architecture. We used Bcl2 and BclXL as the orthogonal drug receptors, which interact with the LD3 protein and respond to their own specific inhibitors. In such a setting, the dual-drug-controlled switch will turn ON in response to one drug and OFF in response to the other, thus mimicking bandpass filtering behavior (Supplementary Fig. 1d). […] To test the switch behavior, we employed the generalizable extracellular molecule sensor (GEMS) platform, which senses extracellular molecules and thus regulates cell surface signaling pathways (Fig. 2a). This receptor platform is based on a mutated EpoR extracellular and transmembrane domain fused to an IL-6RB intracellular domain. Dimerization of EpoR extracellular domains is controlled by N-terminally fused inducible dimerization domains, which drive IL-6RB activation and STAT3 signaling. The Bcl2 and BclXL–LD3 complexes were fused to the extracellular EpoR domains. […] The dimerization of Bcl2 and LD3 causes EpoR extracellular domain dimerization and triggers JAK/STAT3 signaling. Active STAT3 drives the expression of a reporter protein (secreted alkaline phosphatase (SEAP)) controlled by a STAT3-dependent promoter.
(§2) HEK293T cells were seeded in a 96-well plate 24 h before transfection. The transfection mix in each well consisted of 3 ng of constitutive human CMV promoter driven mammalian STAT3 expression vector (PhCMV-STAT3-pA), 30 ng of STAT3-induced reporter expression (OStat3-PhCMVmin-SEAP-pA) and 50 ng of expression vectors for each GEMS receptor chain (PSV40-IgK-(drughigh receptor)-EpoRm-IL-6RBm-pA and PSV40-IgK-(druglow receptor-GGGGSX3-LD3)-EpoRm-IL-6RBm-pA). For the specific drughigh receptor and druglow receptor used in the different cellular assays, they are indicated as wild type or with mutations. Then, plasmid DNA was mixed with 50 μl opti-MEM (Thermo Fisher) and 600 ng of polyethyleneimine (Polysciences, catalog no. 24765-1). For drug treatment experiments, drugs were added 12 h post-transfection and incubated with cells for 24 h before the SEAP reporter detection assay.
(§3) SEAP activity (U l^−1) in cell culture supernatants was quantified by kinetic measurements at 405 nm (1 minute per measurement for 30 cycles) of absorbance increase due to phosphatase-mediated hydrolysis of para-nitrophenyl phosphate (pNPP).
Binding affinities of SPR drug competition assays were calculated using three-parameter nonlinear regression in GraphPad Prism (v.8.3.0). Representative data of cell assays are presented as individual values and mean values (bars). n = 3 refers to biological replicates. All IC50 or EC50 values of cell assays reported were calculated using four-parameter nonlinear regression ± s.d. Bandpass features of cutoff concentrations and Bandwidth90% were estimated based on the curve fitted using bell-shaped curve nonlinear regression in GraphPad Prism (v.8.3.0).

[4] = target: GEMS with the dual-drug-controlled (venetoclax, A-1155463) switch (BclXL and Bcl2–LD3) in HEK293T cells (Homo sapiens, UniProt P10415); assay: GEMS SEAP reporter assay, dual-drug-controlled (venetoclax, A-1155463) switch; type: cell-based
Sequence of GEMS with the dual-drug-controlled (venetoclax, A-1155463) switch (BclXL and Bcl2–LD3) in HEK293T cells (P10415 whole entry): as above
Sequence of GEMS with the dual-drug-controlled (venetoclax, A-1155463) switch (BclXL and Bcl2–LD3) in HEK293T cells (Q07817 whole entry, further chain): as the sequence (Q07817 whole entry) above
Experimental: as §2, §3, §1

[5] = test system: Bcl2; settings: cited from earlier work

CC1(C)CCC(CN2CCN(c3ccc(C(=O)NS(=O)(=O)c4ccc(NCC5CCOCC5)c([N+](=O)[O-])c4)c(Oc4cnc5[nH]ccc5c4)c3)CC2)=C(c2ccc(Cl)cc2)C1 [Venetoclax]
Normalization of Response units ([1]; V 0.01): 100.685
Response units ([1]; V 0.01): 94.0092
Normalization of Response units ([1]; V 0.1): 99.7556
Response units ([1]; V 0.1): 93.1418
Normalization of Response units ([1]; V 1): 98.8448
Response units ([1]; V 1): 92.2914
Normalization of Response units ([1]; V 10): 97.5083
Response units ([1]; V 10): 91.0435
Normalization of Response units ([1]; V 100): 89.9423
Response units ([1]; V 100): 83.9791
Normalization of Response units ([1]; V 1000): 81.529
Response units ([1]; V 1000): 76.1236
Normalization of Response units ([1]; V 10000): 74.8321
Response units ([1]; V 10000): 69.8707
effect on the BclXL–LD3 interaction ([1]; SPR drug competition): not affecting
Normalization of Response units ([2]; V 0.01): 100.745
Response units ([2]; V 0.01): 7.1398
Normalization of Response units ([2]; V 0.1): 100.312
Response units ([2]; V 0.1): 7.1091
Normalization of Response units ([2]; V 1): 96.9409
Response units ([2]; V 1): 6.8702
Normalization of Response units ([2]; V 10): 93.6659
Response units ([2]; V 10): 6.6381
Normalization of Response units ([2]; V 100): 74.5943
Response units ([2]; V 100): 5.2865
Normalization of Response units ([2]; V 1000): 57.566
Response units ([2]; V 1000): 4.0797
Normalization of Response units ([2]; V 10000): 38.8006
Response units ([2]; V 10000): 2.7498
SEAP (U/L) ([3]; Independent repeat, Venetoclax 0.001 nM): 294.62 U/L and 313.4 U/L and 319.588 U/L
SEAP (U/L) ([3]; Independent repeat, Venetoclax 0.01 nM): 267.156 U/L and 307.848 U/L and 300.966 U/L
SEAP (U/L) ([3]; Independent repeat, Venetoclax 0.1 nM): 225.991 U/L and 258.444 U/L and 342.296 U/L
SEAP (U/L) ([3]; Independent repeat, Venetoclax 1 nM): 259.474 U/L and 200.825 U/L and 300.367 U/L
SEAP (U/L) ([3]; Independent repeat, Venetoclax 10 nM): 304.021 U/L and 256.34 U/L and 345.499 U/L
SEAP (U/L) ([3]; Independent repeat, Venetoclax 31.6 nM): 220.194 U/L and 208.431 U/L and 268.11 U/L
SEAP (U/L) ([3]; Independent repeat, Venetoclax 100 nM): 193.21 U/L and 194.937 U/L and 240.35 U/L
SEAP (U/L) ([3]; Independent repeat, Venetoclax 316 nM): 87.2098 U/L and 106.113 U/L and 133.634 U/L
SEAP (U/L) ([3]; Independent repeat, Venetoclax 1000 nM): 44.9721 U/L and 57.2365 U/L and 51.9722 U/L
SEAP (U/L) ([3]; Representative, Venetoclax 0.001 nM): 75.3746 U/L and 89.0712 U/L and 99.0049 U/L
SEAP (U/L) ([3]; Representative, Venetoclax 0.01 nM): 85.1657 U/L and 70.1122 U/L and 89.4923 U/L
SEAP (U/L) ([3]; Representative, Venetoclax 0.1 nM): 81.9771 U/L and 80.9297 U/L and 78.2538 U/L
SEAP (U/L) ([3]; Representative, Venetoclax 1 nM): 69.1909 U/L and 65.9454 U/L and 68.5076 U/L
SEAP (U/L) ([3]; Representative, Venetoclax 10 nM): 45.3899 U/L and 45.448 U/L and 63.5072 U/L
SEAP (U/L) ([3]; Representative, Venetoclax 31.6 nM): 23.8212 U/L and 28.0484 U/L and 21.6764 U/L
SEAP (U/L) ([3]; Representative, Venetoclax 100 nM): 11.359 U/L and 10.3713 U/L and 12.1034 U/L
SEAP (U/L) ([3]; Representative, Venetoclax 316 nM): 9.4797 U/L and 7.067 U/L and 8.943 U/L
SEAP (U/L) ([3]; Representative, Venetoclax 1000 nM): 8.365 U/L and 6.996 U/L and 8.215 U/L
shut-down of reporter gene expression ([3]; adding 1 µM venetoclax to 100 nM A-1155463): effectively shut down
increase in the ON phase [4]: close to tenfold
affinity for Bcl2 stronger than for BclXL [5]: 500 fold
